Assay results as given in patent publication US20250034216A1, “STEREOSELECTIVE COVALENT LIGANDS FOR ONCOGENIC AND IMMUNOLOGICAL PROTEINS” (The Scripps Research Institute, priority 2021, published 2025).

Key:
[1] = target: T1, RTN4_C1101 (Homo sapiens, UniProt Q9NQC3); test: IA-DTB cysteine engagement; format: binding; conditions: 22Rv1 cells, 20 μM probe, 1 h, relative to DMSO
T1 construct: endogenous in cells; host or cells: 22Rv1
T1 sequence (Q9NQC3 1-1192): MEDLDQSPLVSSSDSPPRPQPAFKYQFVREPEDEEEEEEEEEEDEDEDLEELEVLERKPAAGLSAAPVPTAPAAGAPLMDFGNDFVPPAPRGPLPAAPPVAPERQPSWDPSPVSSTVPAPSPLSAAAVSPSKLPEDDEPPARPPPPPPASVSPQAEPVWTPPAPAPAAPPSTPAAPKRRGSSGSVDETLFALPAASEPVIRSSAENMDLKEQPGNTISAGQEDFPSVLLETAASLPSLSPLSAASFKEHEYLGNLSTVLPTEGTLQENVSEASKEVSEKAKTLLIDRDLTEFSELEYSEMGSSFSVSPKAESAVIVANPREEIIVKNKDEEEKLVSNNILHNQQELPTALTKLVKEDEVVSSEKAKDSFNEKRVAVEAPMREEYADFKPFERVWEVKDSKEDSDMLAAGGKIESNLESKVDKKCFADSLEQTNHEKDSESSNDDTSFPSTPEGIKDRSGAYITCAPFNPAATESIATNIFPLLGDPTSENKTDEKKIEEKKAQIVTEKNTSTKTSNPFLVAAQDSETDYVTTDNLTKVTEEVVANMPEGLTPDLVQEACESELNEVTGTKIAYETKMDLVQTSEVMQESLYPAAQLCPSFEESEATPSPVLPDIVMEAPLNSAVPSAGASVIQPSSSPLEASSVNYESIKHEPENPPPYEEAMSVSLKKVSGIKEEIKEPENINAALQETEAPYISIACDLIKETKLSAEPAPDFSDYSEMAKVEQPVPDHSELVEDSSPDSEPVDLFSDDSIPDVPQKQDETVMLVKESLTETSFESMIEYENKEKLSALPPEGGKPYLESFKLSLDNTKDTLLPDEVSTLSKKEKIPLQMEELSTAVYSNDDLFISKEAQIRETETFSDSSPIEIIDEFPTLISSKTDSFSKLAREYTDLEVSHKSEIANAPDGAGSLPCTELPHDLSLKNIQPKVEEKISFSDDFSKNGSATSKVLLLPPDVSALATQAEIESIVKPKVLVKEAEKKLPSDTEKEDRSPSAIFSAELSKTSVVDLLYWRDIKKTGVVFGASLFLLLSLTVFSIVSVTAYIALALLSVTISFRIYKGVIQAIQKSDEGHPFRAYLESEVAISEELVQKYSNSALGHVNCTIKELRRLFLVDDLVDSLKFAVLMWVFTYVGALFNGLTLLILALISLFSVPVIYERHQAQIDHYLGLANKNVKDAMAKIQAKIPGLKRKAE
How it was run: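 Competitive chemoproteomics: residual cysteine reactivity toward IA-DTB in lysates from probe-treated cells was quantified by TMT reporter ions relative to DMSO-treated controls. Replicates sharing cell line, probe, concentration and duration were averaged.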

[2] = tested on: 22Rv1 cells; test: Proliferation assay (CellTiter Glo); format: cell-based, human; conditions: 72 h
Procedure: Cells were seeded at 5000 cells per well (50 μL medium) in 96-well flat bottom white wall plates. After 24 h, 50 μL of medium containing DMSO or compound dilutions (2× final concentration from 1000× stocks) were added to the wells. At the time of compound addition, a reference plate to determine the cell population density at time 0 (TO) was assayed using CellTiter Glo reagent (50 μL added to each well). After 72 h in culture, the remaining plates were assayed using CellTiter Glo. After 30 min of shaking at room temperature, luminescence was analyzed using a CLARIOstar (BMG Labtech) plate reader. Raw values were normalized using GraphPad PRISM software version 9.0.0. Lines of best fit were generated using a four-parameter variable slope least squares regression.

| % engagement RTN4_C1101 [1] [%] | Structure (SMILES) | other results |
| --- | --- | --- |
| 85 | C=CC(=O)N1C[C@@H](c2ccc(Br)cc2)[C@H]1C(=O)Nc1cccc2cccnc12 [MY-1A, (2S,3R)-1-acryloyl-3-(4-bromophenyl)-N-(quinolin-8-yl)azetidine-2-carboxamide] |  |
| 87.5 | C=CC(=O)N1C[C@H](c2ccc(Br)cc2)[C@@H]1C(=O)Nc1cccc2cccnc12 [MY-1B, (2R,3S)-1-acryloyl-3-(4-bromophenyl)-N-(quinolin-8-yl)azetidine-2-carboxamide] |  |
|  | C=CC(=O)N1[C@H](c2ccc3c(c2)OCO3)c2[nH]c3ccccc3c2C[C@H]1C(=O)N1CCOCC1 [WX-02-23, 1-((1R,3S)-1-(benzo[d][1,3]dioxol-S-yl)-3-(morpholine-4-carbonyl)-1,3,4,9-tetrahydro-2H-pyrido [3,4-b]indol-2-yl)prop-2-en-1-one] | fold greater antiproliferative activity than MY-7A [2]: ~4 fold; IC50 ([2]; read-out: antiproliferative activity IC50): 170 nM |
| 85 | C=CC(=O)N1C[C@H](c2ccc(Br)cc2)[C@H]1C(=O)Nc1cccc2cccnc12 [MY-3B, (2S,3S)-1-acryloyl-3-(4-bromophenyl)-N-(quinolin-8-yl)azetidine-2-carboxamide] |  |
|  | C=CC(=O)N1[C@@H](c2ccc3c(c2)OCO3)c2[nH]c3ccccc3c2C[C@@H]1C(=O)N1CCOCC1 [WX-02-43, 1-((1S,3R)-1-(benzo[d][1,3]dioxol-5-yl)-3-(morpholine-4-carbonyl)-1,3,4,9-tetrahydro-2H-pyrido [3,4-b]indol-2-yl)prop-2-en-1-one] | anti-proliferative effect [2]: inactive enantiomer |
| 91.5 | C=CC(=O)N1C[C@H](c2ccc(Br)cc2)[C@H]1C(=O)Nc1cccc2cccnc12 [MY-3A, (2S,3S)-1-acryloyl-3-(4-bromophenyl)-N-(quinolin-8-yl)azetidine-2-carboxamide] |  |
